Experimental data: ChEMBL document CHEMBL1201862, “PubChem BioAssay data set” (2004)
Active and inactive are the calls of the source.

How the values were obtained:
Cytochrome P450 2C9 = Cytochrome P450 2C9 (Homo sapiens, UniProt P11712)
Cytochrome P450 2D6 = Cytochrome P450 2D6 (Homo sapiens, UniProt P10635);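 further: CYP2D6 member of a cytochrome P450 panel assay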
[1] = Luminescence Cell-Based Dose Retest to Confirm Inhibitors of Cancer Stem Cells. [Related pubchem assays (depositor defined):AID2717, AID2721]; assay type: functional; conditions: Homo sapiens
[2] = HEp-2 cell cytotoxicity, dose response, cytotoxicity control for RSV inhibitor project, HTS (AID 2410); assay type: functional; conditions: human respiratory syncytial virus
Cytochrome P450 1A2 = target: T1, Cytochrome P450 1A2 (Homo sapiens, UniProt P05177);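 further: PubChem cytochrome P450 panel assay, CYP1A2 panel member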
T1 sequence (P05177 whole entry): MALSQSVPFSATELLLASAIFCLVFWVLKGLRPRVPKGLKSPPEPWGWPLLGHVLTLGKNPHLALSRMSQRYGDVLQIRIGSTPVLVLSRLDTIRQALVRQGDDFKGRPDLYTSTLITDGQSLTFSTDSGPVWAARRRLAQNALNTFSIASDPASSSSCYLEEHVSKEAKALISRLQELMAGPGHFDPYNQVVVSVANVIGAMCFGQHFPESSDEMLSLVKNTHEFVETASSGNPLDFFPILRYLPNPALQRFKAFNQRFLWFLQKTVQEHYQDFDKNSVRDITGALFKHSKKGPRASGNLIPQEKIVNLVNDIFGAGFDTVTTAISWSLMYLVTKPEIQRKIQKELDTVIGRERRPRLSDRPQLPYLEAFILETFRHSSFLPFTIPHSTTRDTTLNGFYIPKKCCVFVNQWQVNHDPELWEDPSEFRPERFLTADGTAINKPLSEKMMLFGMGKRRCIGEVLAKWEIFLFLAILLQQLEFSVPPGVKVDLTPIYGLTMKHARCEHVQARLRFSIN

Cytochrome P450 3A4 = Cytochrome P450 3A4 (Homo sapiens, UniProt P08684);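 further: CYP3A4 tested as one member of a cytochrome P450 panel screen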
Sequence of Cytochrome P450 3A4 (P08684 whole entry): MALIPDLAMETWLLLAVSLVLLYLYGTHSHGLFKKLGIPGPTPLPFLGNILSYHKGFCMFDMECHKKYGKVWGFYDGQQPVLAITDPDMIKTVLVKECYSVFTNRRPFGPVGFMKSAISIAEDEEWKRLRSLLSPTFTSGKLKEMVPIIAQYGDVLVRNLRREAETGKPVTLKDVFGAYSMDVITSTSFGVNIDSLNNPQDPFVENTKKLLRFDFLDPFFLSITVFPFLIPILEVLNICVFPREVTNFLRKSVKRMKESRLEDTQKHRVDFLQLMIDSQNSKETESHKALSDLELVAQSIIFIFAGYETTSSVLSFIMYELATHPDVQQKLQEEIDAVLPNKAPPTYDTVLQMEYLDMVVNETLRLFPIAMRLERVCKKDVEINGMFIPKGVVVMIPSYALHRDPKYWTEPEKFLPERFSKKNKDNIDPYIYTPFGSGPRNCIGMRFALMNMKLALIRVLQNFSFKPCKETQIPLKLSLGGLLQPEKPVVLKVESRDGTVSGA

Sequence of Cytochrome P450 2C9 (P11712 whole entry): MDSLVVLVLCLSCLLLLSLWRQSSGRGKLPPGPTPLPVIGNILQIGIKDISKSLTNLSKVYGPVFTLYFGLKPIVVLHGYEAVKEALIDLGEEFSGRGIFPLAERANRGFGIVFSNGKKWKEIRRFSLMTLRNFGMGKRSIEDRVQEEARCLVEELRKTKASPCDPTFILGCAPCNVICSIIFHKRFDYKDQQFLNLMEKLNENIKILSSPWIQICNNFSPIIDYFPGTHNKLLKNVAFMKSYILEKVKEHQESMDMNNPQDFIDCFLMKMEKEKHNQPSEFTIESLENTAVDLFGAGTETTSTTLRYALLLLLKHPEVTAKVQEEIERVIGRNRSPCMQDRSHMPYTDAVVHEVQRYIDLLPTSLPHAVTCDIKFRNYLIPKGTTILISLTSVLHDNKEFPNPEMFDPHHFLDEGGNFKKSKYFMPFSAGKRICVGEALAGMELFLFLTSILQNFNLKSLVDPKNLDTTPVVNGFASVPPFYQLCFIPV
Sequence of Cytochrome P450 2D6 (P10635 whole entry): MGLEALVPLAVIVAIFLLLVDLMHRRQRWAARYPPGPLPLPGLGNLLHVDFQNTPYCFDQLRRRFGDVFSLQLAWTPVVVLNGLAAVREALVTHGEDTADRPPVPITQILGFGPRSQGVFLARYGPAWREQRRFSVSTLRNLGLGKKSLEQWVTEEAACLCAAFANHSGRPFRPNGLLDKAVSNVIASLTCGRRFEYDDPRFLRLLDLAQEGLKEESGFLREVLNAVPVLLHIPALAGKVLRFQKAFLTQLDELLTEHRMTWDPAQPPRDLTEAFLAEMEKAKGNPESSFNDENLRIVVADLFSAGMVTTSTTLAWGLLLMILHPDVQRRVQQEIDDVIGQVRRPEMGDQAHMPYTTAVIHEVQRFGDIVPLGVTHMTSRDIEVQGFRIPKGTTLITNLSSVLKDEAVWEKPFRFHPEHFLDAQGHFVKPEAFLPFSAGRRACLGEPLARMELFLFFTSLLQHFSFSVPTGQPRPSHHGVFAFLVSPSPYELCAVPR

Structure (SMILES) | AC50 (Cytochrome P450 2D6) | CC50 [2] | further results
COc1ccc(NC(=O)CSc2nc3ccccc3cc2Cc2ccccc2)cc1 | 0.2 µM (inconclusive) | – | AC50 (Cytochrome P450 2C9): 1.26 µM (inconclusive)
CCc1ccc(N(CC(=O)Nc2nc3ccc(C)cc3s2)S(=O)(=O)c2c(C)noc2C)cc1 | – | – | AC50 [1]: 3.45 µM (active)
CCN(CC)S(=O)(=O)c1cccc(NC(=O)c2cc3ccccc3o2)c1 | – | 10.9 µM (active) | –
CN1CCN(c2ncncc2-c2ccccc2C(F)(F)F)CC1 | 20 µM (inconclusive) | – | AC50 (Cytochrome P450 1A2): 31.6 µM (inconclusive); AC50 (Cytochrome P450 3A4): 3.98 µM (inconclusive)
CCC(=O)O[C@@]1(C(=O)CCl)[C@@H](C)C[C@@H]2[C@H]3CCC4=CC(=O)C=C[C@@]4(C)[C@]3(F)[C@@H](O)C[C@@]21C | 10 µM (inconclusive) | – | AC50 (Cytochrome P450 2C9): 15.8 µM (inconclusive)
Cc1c(C(=O)N(CCc2ccccc2)Cc2ccccc2)cccc1[N+](=O)[O-] | – | 25.5 µM (active) | –
CCC(C)(C)NC(=O)CSc1nc(Cc2ccccc2)nc2ccccc12 | – | > 50 µM (active) | –
CCc1ccc(Nc2cnn(-c3nc4ccccc4s3)c(=O)c2Cl)cc1 | – | 44.6 µM (active) | –
O=C(CCc1nc(-c2ccccc2)no1)NCCc1ccccc1 | 39.8 µM (inconclusive) | – | AC50 (Cytochrome P450 2C9): 15.8 µM (inconclusive)
Cc1noc(C)c1C(=O)Nc1ccc(C#N)cc1 | – | 23.4 µM (active) | –
Cc1ccc(-c2noc(CCC(=O)NCCCN3CCN(c4cccc(Cl)c4)CC3)n2)cc1 | – | > 50 µM (active) | –
C[C@@H]1CC[C@]2(C(=O)O)CC[C@]3(C)C(=CCC4[C@]56CC[C@@](O)(OC5)C(C)(C)C6CC[C@]43C)C2[C@H]1C (stereo partly drawn) | – | – | AC50 [1]: 5.61 µM (active)
Cc1cc(O)nc(N/N=C/c2ccc(-c3ccc(F)cc3)o2)n1 | – | – | AC50 [1]: 9.21 µM (active)
Clc1cccc(Nc2nnc(-c3ccccc3)c3ccccc23)c1 | 2 µM (inconclusive) | – | AC50 (Cytochrome P450 3A4): 7.94 µM (inconclusive)
O=C1c2cccc3c([N+](=O)[O-])ccc(c23)C(=O)N1CCc1ccccn1 | – | 7.83 µM (active) | –
Cc1cc(C(C)(C)CC(C)(C)C)ccc1OCCOCC[N+](C)(C)Cc1ccccc1 [METHYLBENZETHONIUM] | 12.6 µM (inconclusive) | – | AC50 (Cytochrome P450 1A2): 12.6 µM (inconclusive)
